What follows are molecules tested against human orexin-2 receptor (Homo sapiens (Human), UniProt O43614) (assay: Human orexin 2 receptor radioligand binding ([3H]-EMPA competition)). Conditions: HEK293 cells stably expressing human orexin-2 receptor; [3H]-EMPA 5 nM final; apparent Ki=IC50/(1+C/Kd), Kd=2 nM; read-out: OR 2 Ki.
Sequence of human orexin-2 receptor (O43614 whole entry): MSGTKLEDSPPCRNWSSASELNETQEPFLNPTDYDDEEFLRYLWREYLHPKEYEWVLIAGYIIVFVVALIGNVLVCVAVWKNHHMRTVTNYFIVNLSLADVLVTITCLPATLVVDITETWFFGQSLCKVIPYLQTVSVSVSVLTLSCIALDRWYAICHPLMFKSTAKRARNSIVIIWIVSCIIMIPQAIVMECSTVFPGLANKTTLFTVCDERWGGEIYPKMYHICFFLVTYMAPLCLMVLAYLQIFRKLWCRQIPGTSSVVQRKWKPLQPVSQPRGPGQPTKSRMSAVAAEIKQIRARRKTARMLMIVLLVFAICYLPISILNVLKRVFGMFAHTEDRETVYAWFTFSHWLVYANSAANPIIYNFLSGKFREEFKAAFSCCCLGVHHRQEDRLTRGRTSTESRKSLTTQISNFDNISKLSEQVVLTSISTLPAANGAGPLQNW

Row | SMILES | Ki [nM]
1 | Cc1ccc(-c2ncccn2)c(C(=O)N2CC3CN(c4nc(C)cnc4C)CC3C2)c1 (centres unmarked) [Example 103, 2-(3,6-Dimethylpyrazin-2-yl)-5-[(5-methyl-2-pyrimidin-2-ylphenyl)carbonyl]octahydropyrrolo[3,4-c]pyrrole] | 38
2 | Cc1cc(C)nc(N2CC3CN(C(=O)c4ccnn4-c4ccccc4)CC3C2)n1 (centres unmarked) [Example 10, 2-(4,6-Dimethylpyrimidin-2-yl)-5-[(1-phenyl-1H-pyrazol-5-yl)carbonyl]octahydropyrrolo[3,4-c]pyrrole] | 170
3 | O=C(c1ccccc1-c1cccc(F)c1)N1CC2CN(c3cnc4ccccc4n3)CC2C1 (centres unmarked) [Example 29, 2-{5-[(3′-Fluorobiphenyl-2-yl)carbonyl]hexahydropyrrolo[3,4-c]pyrrol-2(1H)-yl}quinoxaline] | 135
4 | O=C(c1ccccc1-c1cccs1)N1CC2CN(c3nccc(-c4cccs4)n3)CC2C1 (centres unmarked) [Example 37, 2-[(2-Thiophen-2-ylphenyl)carbonyl]-5-(4-thiophen-2-ylpyrimidin-2-yl)octahydro-pyrrolo[3,4-c]pyrrole] | 181
5 | Cc1cncc(N2CC3CN(C(=O)c4ccccc4-n4nccn4)CC3C2)n1 (centres unmarked) [Example 211, [5-(6-Methyl-pyrazin-2-yl)-hexahydro-pyrrolo[3,4-c]pyrrol-2-yl]-(2-[1,2,3]triazol-2-yl-phenyl)-methanone] | 44
6 | Cc1cnc(C)c(N2CC3CN(C(=O)c4cc(F)ccc4-c4ncccn4)CC3C2)n1 (centres unmarked) [Example 212, [5-(3,6-Dimethyl-pyrazin-2-yl)-hexahydro-pyrrolo[3,4-c]pyrrol-2-yl]-(5-fluoro-2-pyrimidin-2-yl-phenyl)-methanone] | 33
7 | Cc1ccnc(-c2c(F)cccc2C(=O)N2CC3CN(c4nc(C)cc(C)n4)CC3C2)c1 (centres unmarked) [Example 373, (5-(4,6-Dimethylpyrimidin-2-yl)hexahydropyrrolo[3,4-c]pyrrol-2(1H)-yl)(3-fluoro-2-(4-methylpyridin-2-yl)phenyl)methanone] | 42
8 | Cc1cc(C)nc(N2CC3CN(C(=O)c4ccccc4Br)CC3C2)n1 (centres unmarked) [Example 82, 2-[(2-Bromophenyl)carbonyl]-5-(4,6-dimethylpyrimidin-2-yl)octahydropyrrolo[3,4-c]pyrrole] | 379
9 | COc1cc(OC)nc(N2CC3CN(C(=O)c4ccccc4-c4cccs4)CC3C2)n1 (centres unmarked) [Example 138, 2-(4,6-Dimethoxypyrimidin-2-yl)-5-[(2-thiophen-2-ylphenyl)carbonyl]octahydro pyrrolo[3,4-c]pyrrole] | 30
10 | COc1cc(OC)nc(N2CC3CN(C(=O)c4ncccc4-c4ccccc4)CC3C2)n1 (centres unmarked) [Example 207, [5-(4,6-Dimethoxy-pyrimidin-2-yl)-hexahydro-pyrrolo[3,4-c]pyrrol-2-yl]-(3-phenyl-pyridin-2-yl)-methanone] | 9000
11 | Cc1nc(=O)cc(N2CC3CN(C(=O)c4nc(C)sc4-c4ccc(F)cc4)CC3C2)[nH]1 (centres unmarked) [Example 255, 6-[5-{[5-(4-Fluorophenyl)-2-methyl-1,3-thiazol-4-yl]carbonyl}hexahydropyrrolo[3,4-c]pyrrol-2(1H)-yl]-2-methylpyrimidin-4(3H)-one] | 10000
12 | O=C(c1ccccc1-c1ccc(C(F)(F)F)cc1)N1CC2CN(c3cnc4ccccc4n3)CC2C1 (centres unmarked) [Example 194, (5-Quinoxalin-2-yl-hexahydro-pyrrolo[3,4-c]pyrrol-2-yl)-(4′-trifluoromethyl-biphenyl-2-yl)-methanone] | 10000
13 | O=C(c1ccccc1-c1nnc[nH]1)N1CC2CN(c3nc4ccccc4nc3C(F)(F)F)CC2C1 (centres unmarked) [Example 94, 2-[5-{[2-(4H-1,2,4-Triazol-3-yl)phenyl]carbonyl}hexahydropyrrolo[3,4-c]pyrrol-2(1H)-yl]-3-(trifluoromethyl)quinoxaline] | 551
14 | COc1cccc(OC)c1C(=O)N1CC2CN(c3ccc(C(F)(F)F)cn3)CC2C1 (centres unmarked) [Example 349, 2-[(2,6-Dimethoxyphenyl)carbonyl]-5-[5-(trifluoromethyl)pyridin-2-yl]octahydropyrrolo[3,4-c]pyrrole] | 10000
15 | COc1ccnc(N2CC3CN(C(=O)c4ccccc4-c4ccccc4)CC3C2)n1 (centres unmarked) [Example 177, 2-(Biphenyl-2-ylcarbonyl)-5-(4-methoxypyrimidin-2-yl)octahydropyrrolo[3,4-c]pyrrole] | 339
16 | O=C(c1ccccc1-n1nccn1)N1CC2CN(c3cc(C(F)(F)F)nc(N4CCCC4)n3)CC2C1 (centres unmarked) [Example 214, [5-(2-Pyrrolidin-1-yl-6-trifluoromethyl-pyrimidin-4-yl)-hexahydro-pyrrolo[3,4-c]pyrrol-2-yl]-(2-[1,2,3]triazol-2-yl-phenyl)-methanone] | 1230

Next, values leading:

Row | Ki [nM] | SMILES
17 | 669 | O=C(c1ccccc1-c1ccccc1)N1CC2CN(c3ccc4ccccc4n3)CC2C1 (centres unmarked) [Example 175, 2-[5-(Biphenyl-2-ylcarbonyl)hexahydropyrrolo[3,4-c]pyrrol-2(1H)-yl]quinoline]
18 | 57 | Cc1ccc(-c2ncccn2)c(C(=O)N2CC3CN(c4cc(C(F)(F)F)nc(N(C)C)n4)CC3C2)c1 (centres unmarked) [Example 108, N,N-Dimethyl-4-{5-[(5-methyl-2-pyrimidin-2-ylphenyl)carbonyl]hexahydropyrrolo[3,4-c]pyrrol-2(1H)-yl}-6-(trifluoromethyl)pyrimidin-2-amine]
19 | 33 | CN(C)c1cc(N2CC3CN(C(=O)c4ccccc4-n4nccn4)CC3C2)nc(C(F)(F)F)n1 (centres unmarked) [Example 2, N,N-Dimethyl-6-[5-{[2-(2H-1,2,3-triazol-2-yl)phenyl]carbonyl}hexahydropyrrolo[3,4-c]pyrrol-2(1H)-yl]-2-(trifluoromethyl)pyrimidin-4-amine]
20 | 500 | Cc1cc(C)nc(N2CC3CN(C(=O)c4cccc(F)c4C)CC3C2)n1 (centres unmarked) [Example 220, 2-(4,6-Dimethylpyrimidin-2-yl)-5-[(3-fluoro-2-methylphenyl)carbonyl]octahydropyrrolo[3,4-c]pyrrole]
21 | 48 | Cc1cnc(C)c(N2CC3CN(C(=O)c4c(F)cccc4-n4nccn4)CC3C2)n1 (centres unmarked) [Example 101, 2-(3,6-Dimethylpyrazin-2-yl)-5-{[2-fluoro-6-(2H-1,2,3-triazol-2-yl)phenyl]carbonyl}octahydropyrrolo[3,4-c]pyrrole]
22 | 1310 | O=C(c1ccccc1-c1cccc(Cl)c1)N1CC2CN(c3nccc(-c4ccccc4)n3)CC2C1 (centres unmarked) [Example 198, (3′-Chloro-biphenyl-2-yl)-[5-(4-phenyl-pyrimidin-2-yl)-hexahydro-pyrrolo[3,4-c]pyrrol-2-yl]-methanone]
23 | 570 | Cc1cccc(-c2ccc(F)cc2C(=O)N2CC3CN(c4nc(C)cc(C)n4)CC3C2)n1 (centres unmarked) [Example 399, (5-(4,6-Dimethylpyrimidin-2-yl)hexahydropyrrolo[3,4-c]pyrrol-2(1H)-yl)(5-fluoro-2-(6-methylpyridin-2-yl)phenyl)methanone]
24 | 112 | Cc1cc(C)nc(N2CC3CN(C(=O)c4cccc5cccc(-n6nccn6)c45)CC3C2)n1 (centres unmarked) [Example 328, [5-(4,6-Dimethyl-pyrimidin-2-yl)-hexahydro-pyrrolo[3,4-c]pyrrol-2-yl]-(8-[1,2,3]triazol-2-yl-naphthalen-1-yl)-methanone]
25 | 22 | COc1ccc(C(=O)N2CC3CN(c4cnc5cc(F)c(F)cc5n4)CC3C2)c(-n2nccn2)c1 (centres unmarked) [Example 389, (5-(6,7-Difluoroquinoxalin-2-yl)hexahydropyrrolo[3,4-c]pyrrol-2(1H)-yl)(4-methoxy-2-(2H-1,2,3-triazol-2-yl)phenyl)methanone]
26 | 1200 | COc1cccc(OC)c1C(=O)N1CC2CN(c3nc(C)cc(C)n3)CC2C1 (centres unmarked) [Example 351, (2,6-Dimethoxyphenyl)(5-(4,6-dimethylpyrimidin-2-yl)hexahydropyrrolo[3,4-c]pyrrol-2(1H)-yl)methanone]
27 | 1800 | COc1ccc(C(=O)N2CC3CN(c4nc(C)cc(C)n4)CC3C2)c(-n2ccnn2)c1 (centres unmarked) [Example 289]
28 | 55 | Cc1ccc(-n2nccn2)c(C(=O)N2CC3CN(c4nccc(-c5ccccc5)n4)CC3C2)c1 (centres unmarked) [Example 127, 2-{[5-Methyl-2-(2H-1,2,3-triazol-2-yl)phenyl]carbonyl}-5-(4-phenylpyrimidin-2-yl)octahydropyrrolo[3,4-c]pyrrole]
29 | 9 | COc1ccc(C(=O)N2CC3CN(c4nc(C)c(F)c(C)n4)CC3C2)c(-n2nccn2)c1 (centres unmarked) [Example 379, 2-(5-Fluoro-4,6-dimethylpyrimidin-2-yl)-5-{[4-methoxy-2-(2H-1,2,3-triazol-2-yl)phenyl]carbonyl}octahydropyrrolo[3,4-c]pyrrole]
30 | 132 | O=C(c1ccccc1-c1cccs1)N1CC2CN(c3nc4ccc(F)cc4s3)CC2C1 (centres unmarked) [Example 46, 6-Fluoro-2-{5-[(2-thiophen-2-ylphenyl)carbonyl]hexahydropyrrolo[3,4-c]pyrrol-2(1H)-yl}-1,3-benzothiazole]
31 | 722 | CCc1ccccc1C(=O)N1CC2CN(c3cnc4ccccc4n3)CC2C1 (centres unmarked) [Example 35, 2-{5-[(2-Ethylphenyl)carbonyl]hexahydropyrrolo[3,4-c]pyrrol-2(1H)-yl}quinoxaline]
32 | 15 | CN(C)c1nc(N2CC3CN(C(=O)c4ccccc4-n4nccn4)CC3C2)cc(C(F)(F)F)n1 (centres unmarked) [Example 121, N,N-Dimethyl-4-[5-{[2-(2H-1,2,3-triazol-2-yl)phenyl]carbonyl}hexahydropyrrolo[3,4-c]pyrrol-2(1H)-yl]-6-(trifluoromethyl)pyrimidin-2-amine]
33 | 27 | O=C(c1cc(F)ccc1-c1ncccn1)N1CC2CN(c3cnc4ccccc4n3)CC2C1 (centres unmarked) [Example 146, 2-{5-[(5-Fluoro-2-pyrimidin-2-ylphenyl)carbonyl]hexahydropyrrolo[3,4-c]pyrrol-2(1H)-yl}quinoxaline]
34 | 24 | Cc1cc(N2CC3CN(C(=O)c4c(F)cccc4-c4ncccn4)CC3C2)nc(C(F)(F)F)n1 (centres unmarked) [Example 117, 2-[(2-Fluoro-6-pyrimidin-2-ylphenyl)carbonyl]-5-[6-methyl-2-(trifluoromethyl)pyrimidin-4-yl]octahydropyrrolo[3,4-c]pyrrole]

Same assay, conditions: read-out: OR 2 Ki

Row | SMILES | Ki [nM]
35 | Cc1nc(N2CC3CN(C(=O)c4ccccc4-c4ncn(C)n4)CC3C2)ncc1Cl (centres unmarked) [Example 321, 2-(5-Chloro-4-methylpyrimidin-2-yl)-5-{[2-(1-methyl-1H-1,2,4-triazol-3-yl)phenyl]carbonyl}octahydropyrrolo[3,4-c]pyrrole] | 29

— patent publication US8653263B2 (Janssen Pharmaceutica, priority 2009, dated 2014)
